Laboratory results taken from article PMC11108815 (Heliyon, 2024).

Assays:
[1] = Pharmacokinetics in rat plasma; assay type: in vivo, Wistar rats; conditions: for AUC(0-t) / AUC(0-inf) / CL/F / Cmax / MRT last / MRT inf / half-life / Tmax: Wistar, rat, plasma, po, 100 mg/kg; for AUC(0-t): AUC0-t; for AUC(0-inf): AUC0-∞; for CL/F: CLz/F; for MRT last: MRT0-t; for MRT inf: MRT0-∞; for Cmax after modeling compared with control group: oral administration of FS
[2] = Stability test of QC samples; assay type: physicochemical, rat
[3] = rats, oral, 12.5 to 50 mg kg^−1; cited from earlier work
[4] = FS-C: normal (blank) rats, oral FS 100 mg kg^−1, n = 6
[5] = FT-C: normal (blank) rats, oral FT 100 mg kg^−1, n = 6
[6] = T1/2, FS-C: normal (blank) rats, oral FS 100 mg kg^−1, n = 6
[7] = T1/2, FT-C: normal (blank) rats, oral FT 100 mg kg^−1, n = 6
[8] = control group, after oral administration of FS or FT
[9] = Store at 4 °C for 24 h, high concentration QC sample in rat plasma
[10] = Store at 4 °C for 24 h, low concentration QC sample in rat plasma
[11] = Store at 4 °C for 24 h, medium concentration QC sample in rat plasma
[12] = Store at room temperature for 12 h, high concentration QC sample in rat plasma
[13] = Store at room temperature for 12 h, low concentration QC sample in rat plasma
[14] = Store at room temperature for 12 h, medium concentration QC sample in rat plasma
[15] = Store at −20 °C for 20 days, high concentration QC sample in rat plasma
[16] = Store at −20 °C for 20 days, low concentration QC sample in rat plasma
[17] = Store at −20 °C for 20 days, medium concentration QC sample in rat plasma
[18] = Three freeze-thaw cycles, high concentration QC sample in rat plasma
[19] = Three freeze-thaw cycles, low concentration QC sample in rat plasma
[20] = Three freeze-thaw cycles, medium concentration QC sample in rat plasma

Work on O=C(/C=C/c1ccc(O)c(O)c1)O[C@H](Cc1ccc(O)c(O)c1)C(=O)O [Rosmarinic acid] yielded an AUC(0-t) [1, 4] of 218 ± 14.9 ng·h/mL, an AUC(0-t) [1, 5] of 104 ± 17.2 ng·h/mL and an AUC(0-inf) [1, 4] of 222 ± 20.6 ng·h/mL. It also gave an AUC(0-inf) [1, 5] of 109 ± 28.6 ng·h/mL, a CL/F [1, 4] of 2060 mL/min/kg and a CL/F [1, 5] of 3430 mL/min/kg. It also gave a Cmax [1, 4] of 54.5 ± 5.34 ng/mL, a Cmax [1, 5] of 16.4 ± 4.28 ng/mL and an MRT last [1, 4] of 5.01 ± 0.38 h. The MRT last [1, 5] was 7.95 ± 1.33 h, the MRT inf [1, 4] was 5.48 ± 1.41 h and the MRT inf [1, 5] was 8.82 ± 3.43 h. For the same compound, the half-life [1, 6] was 2.42 ± 2.5 h, the half-life [1, 7] was 2.91 ± 3.72 h and the Tmax [1, 4] was 0.39 ± 0.09 h. For the same compound, the Tmax [1, 5] was 0.22 ± 0.09 h, the Tmax [1, 8] was under 0.39 h and the “MRT0-t after oral FT compared with the FS group” value ([1]; both before and after modeling) was “increased”. For the same compound, the “CLz/F in FT compared with FS” value ([1]; normal group, p < 0.01) was “higher”, the “AUC0-t in FT compared with FS” value ([1]; normal group, p < 0.01, 0.05) was “significantly lower” and the “AUC0-∞ in FT compared with FS” value ([1]; normal group, p < 0.01, 0.05) was “significantly lower”. The “Cmax in FT compared with FS” value ([1]; normal group, p < 0.01, 0.05) was “significantly lower”, the “Cmax after modeling compared with control group” value [1] was “increased” and the “Stability, Accuracy (RE, %)” value [2, 9] was 5.57%. For the same compound, the “Stability, Accuracy (RE, %)” value [2, 10] was −6.18%, the “Stability, Accuracy (RE, %)” value [2, 11] was 0.63% and the “Stability, Accuracy (RE, %)” value [2, 12] was −10.92%. For the same compound, the “Stability, Accuracy (RE, %)” value [2, 13] was −3.95%, the “Stability, Accuracy (RE, %)” value [2, 14] was −0.80% and the “Stability, Accuracy (RE, %)” value [2, 15] was 0.99%. For the same compound, the “Stability, Accuracy (RE, %)” value [2, 16] was 1.19%, the “Stability, Accuracy (RE, %)” value [2, 17] was 6.02% and the “Stability, Accuracy (RE, %)” value [2, 18] was −4.84%. For the same compound, the “Stability, Accuracy (RE, %)” value [2, 19] was 1.82%, the “Stability, Accuracy (RE, %)” value [2, 20] was −0.56% and the pharmacokinetic characteristics [3] was “fast absorption, moderate elimination and low absolute bioavailability”.

In the case of O=C(/C=C/c1ccc(O)c2c1[C@H](C(=O)O)[C@@H](c1ccc(O)c(O)c1)O2)O[C@H](Cc1ccc(O)c(O)c1)C(=O)O [Lithospermic acid], the AUC(0-t) [1, 4] is reported as 128 ± 40.5 ng·h/mL, the AUC(0-t) [1, 5] is reported as 119 ± 48.8 ng·h/mL and the AUC(0-inf) [1, 4] is reported as 164 ± 85 ng·h/mL. The AUC(0-inf) [1, 5] was 119 ± 48.9 ng·h/mL, the CL/F [1, 4] was 150 mL/min/kg and the CL/F [1, 5] was 289 mL/min/kg. For the same compound, the Cmax [1, 4] was 11.4 ± 1.33 ng/mL, the Cmax [1, 5] was 13.7 ± 2.76 ng/mL and the MRT last [1, 4] was 6.61 ± 1.61 h. For the same compound, the MRT last [1, 5] was 8.67 ± 3.71 h, the MRT inf [1, 4] was 11.1 ± 10.8 h and the MRT inf [1, 5] was 8.67 ± 3.71 h. The half-life [1, 6] was 5.06 ± 8.9 h, the half-life [1, 7] was 1.03 ± 0.45 h and the Tmax [1, 4] was 0.31 ± 0.16 h. For the same compound, the Tmax [1, 5] was 0.22 ± 0.13 h, the Tmax [1, 8] was under 0.39 h and the “AUC0-t in model group compared with control group” value ([1]; after modeling, p < 0.01, 0.05) was “significantly higher”. For the same compound, the “shape of the drug-time curve” value ([1]; both the control and model groups treated with oral FS or FT) was “bimodal phenomenon”, the “Cmax after modeling compared with control group” value [1] was “increased” and the “Stability, Accuracy (RE, %)” value [2, 9] was 7.65%. For the same compound, the “Stability, Accuracy (RE, %)” value [2, 10] was 6.82%, the “Stability, Accuracy (RE, %)” value [2, 11] was 6.58% and the “Stability, Accuracy (RE, %)” value [2, 12] was 11.92%. For the same compound, the “Stability, Accuracy (RE, %)” value [2, 13] was −5.80%, the “Stability, Accuracy (RE, %)” value [2, 14] was 0.69% and the “Stability, Accuracy (RE, %)” value [2, 15] was −0.73%. For the same compound, the “Stability, Accuracy (RE, %)” value [2, 16] was −8.45%, the “Stability, Accuracy (RE, %)” value [2, 17] was 0.15% and the “Stability, Accuracy (RE, %)” value [2, 18] was −10.67%. For the same compound, the “Stability, Accuracy (RE, %)” value [2, 19] was 6.56% and the “Stability, Accuracy (RE, %)” value [2, 20] was 9.01%.
